Reference: US20180327402A1, “TRIAZOLOPYRIDINE COMPOUNDS AND METHODS OF USE THEREOF” (Genentech, Inc., priority 2015, published 2018)

Experiments:
[1] = molecular target: T1, isolated recombinant JAK1 kinase domain (Homo sapiens, UniProt P23458); test: JAK enzyme assay (Caliper LabChip), JAK1; type: biochemical; conditions: 1.5 nM JAK1, ATP 25 μM, 22° C., 30 minutes; Morrison tight binding model
T1 construct: isolated recombinant JAK1 and JAK2 kinase domain
Procedure: (§1) The activity of the isolated recombinant JAK1 and JAK2 kinase domain was measured by monitoring phosphorylation of a peptide derived from JAK3 (Val-Ala-Leu-Val-Asp-Gly-Tyr-Phe-Arg-Leu-Thr-Thr, fluorescently labeled on the N-terminus with 5-carboxyfluorescein) using the Caliper LabChip® technology (Caliper Life Sciences, Hopkinton, Mass.). To determine inhibition constants (Ki), compounds were diluted serially in DMSO and added to 50 μL kinase reactions containing purified enzyme (1.5 nM JAK1, or 0.2 nM JAK2), 100 mM HEPES buffer (pH 7.2), 0.015% Brij-35, 1.5 μM peptide substrate, ATP (25 μM), 10 mM MgCl2, 4 mM DTT at a final DMSO concentration of 2%. Reactions were incubated at 22° C. in 384-well polypropylene microtiter plates for 30 minutes and then stopped by addition of 25 μL of an EDTA containing solution (100 mM HEPES buffer (pH 7.2), 0.015% Brij-35, 150 mM EDTA), resulting in a final EDTA concentration of 50 mM. After termination of the kinase reaction, the proportion of phosphorylated product was determined as a fraction of total peptide substrate using the Caliper LabChip® 3000 according to the manufacturer's specifications. Ki values were then determined using the Morrison tight binding model (Morrison, J. F., Biochim. Biophys. Acta. 185:269-296 (1969); William, J. W. and Morrison, J. F., Meth. Enzymol., 63:437-467 (1979)) modified for ATP-competitive inhibition [Ki ═Ki,app/(1+[ATP]/Km,app)].

[2] = molecular target: T2, isolated recombinant JAK2 kinase domain (Homo sapiens, UniProt O60674); test: JAK enzyme assay (Caliper LabChip), JAK2; type: biochemical; conditions: 0.2 nM JAK2, ATP 25 μM, 22° C., 30 minutes; Morrison tight binding model
T2 construct: isolated recombinant JAK1 and JAK2 kinase domain
Procedure: as §1

T2 sequence (O60674 849-1124 limits assumed): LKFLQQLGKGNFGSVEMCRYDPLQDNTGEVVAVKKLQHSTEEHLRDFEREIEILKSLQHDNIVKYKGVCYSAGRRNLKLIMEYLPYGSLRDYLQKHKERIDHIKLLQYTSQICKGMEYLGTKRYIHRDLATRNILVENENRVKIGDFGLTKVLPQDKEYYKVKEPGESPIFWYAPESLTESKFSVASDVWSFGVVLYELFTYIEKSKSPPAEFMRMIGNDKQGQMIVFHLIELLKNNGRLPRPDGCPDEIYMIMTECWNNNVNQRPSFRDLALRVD
T1 sequence (P23458 875-1153 limits assumed): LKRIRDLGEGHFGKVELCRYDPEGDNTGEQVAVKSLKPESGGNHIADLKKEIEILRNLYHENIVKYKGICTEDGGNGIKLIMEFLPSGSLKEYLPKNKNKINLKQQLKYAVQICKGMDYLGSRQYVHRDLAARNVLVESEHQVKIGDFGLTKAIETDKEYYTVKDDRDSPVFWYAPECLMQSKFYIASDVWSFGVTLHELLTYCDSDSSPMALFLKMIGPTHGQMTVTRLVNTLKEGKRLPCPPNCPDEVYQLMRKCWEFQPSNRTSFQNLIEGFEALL

| SMILES | Ki [1] | Ki [2] |
| --- | --- | --- |
| CCCCn1cc(Nc2nc3c(N4CCC(CO)(c5ccc(Cl)cc5)CC4)cccn3n2)cn1 [Compound 1-11, [1-[2-[(1-butylpyrazol-4-yl)amino]-[1,2,4]triazolo[1,5-a]pyridin-8-yl]-4-(4-chlorophenyl)-4-piperidyl]methanol] | 0.42 nM | 0.31 nM |
| CN(C)CCCn1cc(Nc2nc3c(N4CCC(CO)(c5ccc(Cl)cc5)CC4)cccn3n2)cn1 [Compound 1-8, [4-(4-chlorophneyl)-1-[2-[[1-[3-(dimethylamino)propyl]pyrazol-4-yl]amino]-[1,2,4]triazolo[1,5-a]pyridin-8-yl]-4-piperidyl]methanol; formic acid] | 0.56 nM | 0.22 nM |
| CNCCn1cc(Nc2nc3c(-c4ccc(OCc5ccc(OCCOC)nc5)cc4)cccn3n2)cn1 [Compound 3-2, 8-[4-[[6-(2-methoxyethoxy)-3-pyridyl]methoxy]phenyl]-N-[1-[2-(methylamino)ethyl]pyrazol-4-yl]-[1,2,4]triazolo[1,5-a]pyridin-2-amine] | 2.4 nM | 0.86 nM |
| CN(C)CC(O)C1(c2ccc(Cl)cc2)CCN(c2cccn3nc(Nc4cnn(C)c4)nc23)CC1 (racemic) [C, 1-[4-(4-chlorophenyl)-1-[2-[(1-methylpyrazol-4-yl)amino]-[1,2,4]triazolo[1,5-a]pyridin-8-yl]-4-piperidyl]-2-(dimethylamino)ethanol] | 1.8 nM | 2.9 nM |
| CSc1ccc(C2(CO)CCN(c3cccn4nc(Nc5cnn(CCN6CCC(N7CCOCC7)CC6)c5)nc34)CC2)cc1 [J, [4-(4-methylsulfanylphenyl)-1-[2-[[1-[2-(4-morpholino-1-piperidyl)ethyl]pyrazol-4-yl]amino]-[1,2,4]triazolo[1,5-a]pyridin-8-yl]-4-piperidyl]methanol] | 1.7 nM | 0.47 nM |
| OCC1(c2ccc(Cl)cc2)CCN(c2cccn3nc(Nc4cnn(C5CCNCC5)c4)nc23)CC1 [Compound 1-5, [4-(4-chlorophenyl)-1-[2-[[1-(4-piperidyl)pyrazol-4-yl]amino]-[1,2,4]triazolo[1,5-a]pyridin-8-yl]-4-piperidyl]methanol; formic acid] | 0.23 nM | 0.12 nM |
| CSc1ccc(C2(CC#N)CCN(c3cccn4nc(Nc5cnn(CCN6CCN(C)C(=O)C6)c5)nc34)CC2)cc1 [O, 2-[1-[2-[[1-[2-(4-methyl-3-oxo-piperazin-1-yl)ethyl]pyrazol-4-yl]amino]-[1,2,4]triazolo[1,5-a]pyridin-8-yl]-4-(4-methylsulfanylphenyl)-4-piperidyl]acetonitrile] | 4.6 nM | 1 nM |
| O=C(CCC(F)(F)F)N1CC=C(c2cccn3nc(Nc4cnn(CC(F)F)c4)nc23)CC1 [Compound 2-1, 1-[4-[2-[[1-(2,2-difluoroethyl)pyrazol-4-yl]amino]-[1,2,4]triazolo[1,5-a]pyridin-8-yl]-3,6-dihydro-2H-pyridin-1-yl]-4,4,4-trifluoro-butan-1-one] | 0.74 nM | 0.88 nM |
| CSc1ccc(C2(CC#N)CCN(c3cccn4nc(Nc5cnn(CCN6CCN(C(C)=O)CC6)c5)nc34)CC2)cc1 [L, 2-[1-[2-[[1-[2-(4-acetylpiperazin-1-yl)ethyl]pyrazol-4-yl]amino]-[1,2,4]triazolo[1,5-a]pyridin-8-yl]-4-(4-methylsulfanylphenyl)-4-piperidyl]acetonitrile] | 2.6 nM | 0.65 nM |
| N#CCCN1CCC(n2cc(Nc3nc4c(N5CCC(CO)(c6ccc(Cl)cc6)CC5)cccn4n3)cn2)CC1 [Compound 1-4, 3-[4-[4-[[8-[4-(4-chlorophenyl)-4-(hydroxymethyl)-1-piperidyl]-[1,2,4]triazolo[1,5-a]pyridin-2-yl]amino]pyrazol-1-yl]-1-piperidyl]propanenitrile] | 0.27 nM | 0.11 nM |
| CN1CCC(n2cc(Nc3nc4c(N5CCC(CO)(c6ccc(Cl)cc6)CC5)cccn4n3)cn2)CC1 [Compound 1-12, [4-(4-chlorophenyl)-1-[2-[[1-(1-methyl-4-piperidyl)pyrazol-4-yl]amino]-[1,2,4]triazolo[1,5-a]pyridin-8-yl]-4-piperidyl]methanol; formic acid] | 0.27 nM | 0.19 nM |
| Cn1cc(Nc2nc3c(N4CCC(CCN5CCOCC5)(c5ccc(Cl)cc5)CC4)cccn3n2)cn1 [H, 8-[4-(4-chlorophenyl)-4-(2-morpholinoethyl)-1-piperidyl]-N-(1-methylpyrazol-4-yl)-[1,2,4]triazolo[1,5-a]pyridin-2-amine] | 11 nM | 3.5 nM |
| OCCCn1cc(Nc2nc3c(N4CCC(CO)(c5ccc(Cl)cc5)CC4)cccn3n2)cn1 [Compound 1-7, 3-[4-[[8-[4-(4-chlorophenyl)-4-(hydroxymethyl)-1-piperidyl]-[1,2,4]triazolo[1,5-a]pyridin-2-yl]amino]pyrazol-1-yl]propan-1-ol] | 0.18 nM | 0.11 nM |
| O=C(CCC(F)(F)F)N1CC=C(c2cccn3nc(Nc4cnn(CCO)c4)nc23)CC1 [Compound 2-2, 4,4,4-trifluoro-1-[4-[2-[[1-(2-hydroxyethyl)pyrazol-4-yl]amino]-[1,2,4]triazolo[1,5-a]pyridin-8-yl]-3,6-dihydro-2H-pyridin-1-yl]butan-1-one] | 0.87 nM | 0.71 nM |
| COC(=O)CNCC1(c2ccc(Cl)cc2)CCN(c2cccn3nc(Nc4cnn(C)c4)nc23)CC1 [F, formic acid; methyl 2-[[4-(4-chlorophenyl)-1-[2-[(1-methylpyrazol-4-yl)amino]-[1,2,4]triazolo[1,5-a]pyridin-8-yl]-4-piperidyl]methylamino]] | 1.4 nM | 0.53 nM |
| CN1CCN(CCCn2cc(Nc3nc4c(N5CCC(CO)(c6ccc(Cl)cc6)CC5)cccn4n3)cn2)CC1 [Compound 1-9, [4-(4-chlorophenyl)-1-[2-[[1-[3-(4-methylpiperazin-1-yl)propyl]pyrazol-4-yl]amino]-[1,2,4]triazolo[1,5-a]pyridin-8-yl]-4-piperidyl]methanol; formic acid] | 0.55 nM | 0.26 nM |
| CSc1ccc(C2(CC#N)CCN(c3cccn4nc(Nc5cnn(CCN6CCC(N7CCOCC7)CC6)c5)nc34)CC2)cc1 [K, 2-[4-(4-methylsulfanylphenyl)-1-[2-[[1-[2-(4-morpholino-1-piperidyl)ethyl]pyrazol-4-yl]amino]-[1,2,4]triazolo[1,5-a]pyridin-8-yl]-4-piperidyl]acetonitrile] | 2.7 nM | 1.1 nM |
| COCCOc1ccc(COc2ccc(-c3cccn4nc(Nc5cnn(C6CCNCC6)c5)nc34)cc2)cn1 [Compound 3-3, 8-[4-[[6-(2-methoxyethoxy)-3-pyridyl]methoxy]phenyl]-N-[1-(4-piperidyl)pyrazol-4-yl]-[1,2,4]triazolo[1,5-a]pyridin-2-amine] | 0.82 nM | 0.2 nM |
| OCC1(c2ccc(Cl)cc2)CCN(c2cccn3nc(Nc4cnn(C5CCN(Cc6ccccc6)CC5)c4)nc23)CC1 [Compound 1-3, [1-[2-[[1-(1-benzyl-4-piperidyl)pyrazol-4-yl]amino]-[1,2,4]triazolo[1,5-a]pyridin-8-yl]-4-(4-chlorophenyl)-4-piperidyl]methanol; formic acid] | 0.63 nM | 0.38 nM |
| CSc1ccc(C2(CO)CCN(c3cccn4nc(Nc5cnn(CCN)c5)nc34)CC2)cc1 [R, [1-[2-[[1-(2-aminoethyl)pyrazol-4-yl]amino]-[1,2,4]triazolo[1,5-a]pyridin-8-yl]-4-(4-methylsulfanylphenyl)-4-piperidyl]methanol] | 2.9 nM | 1.4 nM |
| Cn1cc(Nc2nc3c(N4CCC(CN)(c5ccc(Cl)cc5)CC4)cccn3n2)cn1 [D, 8-[4-(aminomethyl)-4-(4-chlorophenyl)-1-piperidyl]-N-(1-methylpyrazol-4-yl)-[1,2,4]triazolo[1,5-a]pyridin-2-amine] | 0.55 nM | 0.94 nM |
| OCC1(c2ccc(Cl)cc2)CCN(c2cccn3nc(Nc4cnn(CCN5CCOCC5)c4)nc23)CC1 [Compound 1-2, [4-(4-chlorophenyl)-1-[2-[[1-(2-morpholinoethyl)pyrazol-4-yl]amino]-[1,2,4]triazolo[1,5-a]pyridin-8-yl]-4-piperidyl]methanol; formic acid] | 0.52 nM | 0.16 nM |
| CSc1ccc(C2(CC#N)CCN(c3cccn4nc(Nc5cnn(CCNC6COC6)c5)nc34)CC2)cc1 [P, 2-[4-(4-methylsulfanylphenyl)-1-[2-[[1-[2-(oxetan-3-ylamino)ethyl]pyrazol-4-yl]amino]-[1,2,4]triazolo[1,5-a]pyridin-8-yl]-4-piperidyl]acetonitrile] | 2.4 nM | 0.72 nM |
| COC(=O)CN1CCC2(CC1)CN(C(=O)N1CC=C(c3cccn4nc(Nc5cnn(C)c5)nc34)CC1)C2 [E, methyl 2-[2-[4-[2-[(1-methylpyrazol-4-yl)amino]-[1,2,4]triazolo[1,5-a]pyridin-8-yl]-3,6-dihydro-2H-pyridine-1-carbonyl]-2,7-diazaspiro[3.5]nonan-7-yl]acetate] | 38 nM | 20 nM |
